B1: thymus-expressed chemokine (protein, UniProt O15444 24-150, looked up)
C-C motif chemokine 25: QGVFEDCCLAYHYPIGWAVLRRAWTYRIQEVSGSCNLPAAIFYLPKRHRKVCGNPKSREVQRAMKLLDARNKVFAKLHHNTQTFQAGPHAVKKLSSGNSKLSSSKFSNPISSSKRNVSLLISANSGL

How the values were obtained:
Format in all cases: cell-based
[1] = system: keratinocytes; assay: Evaluation of chemotaxis of keratinocytes (Transwell insert migration); conditions: six hours, FIG. 1; for migration of keratinocytes compared to the negative control: 100 or 500 ng/ml chemokine in lower chamber, vs group not treated with a chemokine; for number of migrated keratinocytes relative to SDF-1α: 100 or 500 ng/ml chemokine, vs SDF-1α positive control
Experimental: The keratinocytes isolated from normal skin tissue were cocultured with 3T3 feeder cells in a DMEM/F12 medium (Invitrogen™, Thermo Fisher Scientific Inc., United States) containing 10% fetal bovine serum (FBS) in a humid environment of 37° C. and 10% CO2. When the cultured cells grew by 70 to 80%, the 3T3 feeder cells were removed and only the keratinocytes were isolated using trypsin-EDTA.
To evaluate chemotaxis of keratinocytes in response to BLC (CXCL13) or TECK (CCL25), cells were cultured using a Transwell® insert (Falcon®, Corning Incorporated, United States) with an opening size of 8 μm, and the number of cells migrated passing through micropores in the insert toward the chemokine were counted. Specifically, the lower chamber of the insert was treated with a chemokine (100 or 500 ng/ml BLC (CXCL13) or 100 or 500 ng/ml TECK (CCL25)), and then cells were placed in wells of the insert in a ratio of 1×10^4 cells per well. After cell incubation in a humid environment of 37° C. and 10% CO2 for six hours, the insert membrane was stained with hematoxylin, and then the number of migrated cells were counted.

[2] = system: wound on Neoderm®-ED three-dimensional skin culture model; assay: Wound-healing effect (re-epithelialization) in three-dimensional skin culture model; conditions: 500 ng/ml chemokine, five days, FIG. 2; for length of re-epithelialization compared to the negative control: 4-mm biopsy punch wound, vs untreated group; for length of re-epithelialization relative to SDF-1α: vs SDF-1α
Experimental: A Neoderm®-ED (TEGO Science, Korea) consisting of the dermis including collagen and fibroblasts and the epidermis including keratinocytes was prepared. A wound was induced on the Neoderm®-ED using a 4-mm biopsy punch, and the wound was treated with a 500 ng/ml chemokine (BLC (CXCL13) or TECK (CCL25)) and incubated in a humid environment of 37° C. and 10% CO2 for five days. The cultured Neoderm®-ED tissue was separated from insert wells and stained with hematoxylin and eosin (H&E staining). The stained tissue was placed on a glass slide and photographed under a microscope. The obtained images were analyzed using Image-Pro™ image analysis software (Media Cybernetics, Inc., United States) to measure a length of re-epithelialization of the wound.

[3] = system: proliferation marker Ki-67; assay: Expression of proliferation marker Ki-67 in three-dimensional skin culture model (immunofluorescence); conditions: 100 ng/ml chemokine, 48 hours, Neoderm®-ED, FIGS. 3 and 5; for expression of proliferation marker Ki-67 compared to SDF-1α: vs SDF-1α; for expression of proliferation marker Ki-67 compared to the negative control: vs untreated group
Experimental: (§1) To evaluate the effects of skin regeneration and skin elasticity improvement, a Neoderm®-ED was treated with a 100 ng/ml chemokine (BLC (CXCL13) or TECK (CCL25)) and incubated in a humid environment of 37° C. and 10% CO2 for 48 hours. Then, the Neoderm®-ED was reacted with primary antibodies that bind to markers (i.e., proliferation marker Ki-67 and collagen IV) used to confirm the ability to induce skin regeneration and skin elasticity and then with secondary antibodies labeled with a fluorescent substance. Cell nuclei were stained with 4′,6-diamidino-2-phenylindole (DAPI).

[4] = system: collagen IV; assay: Expression of collagen IV in three-dimensional skin culture model (immunofluorescence); conditions: 100 ng/ml chemokine, 48 hours, Neoderm®-ED, FIG. 4; for expression of collagen IV compared to SDF-1α: vs SDF-1α; for expression of collagen IV compared to the negative control: vs untreated group
Experimental: as §1

Molecule	migration of keratinocytes compared to the negative control [1]	number of migrated keratinocytes relative to SDF-1α [1]	length of re-epithelialization compared to the negative control [2]	length of re-epithelialization relative to SDF-1α [2]	expression of proliferation marker Ki-67 compared to SDF-1α [3]	expression of proliferation marker Ki-67 compared to the negative control [3]	expression of collagen IV compared to SDF-1α [4]	expression of collagen IV compared to the negative control [4]
B lymphocyte chemoattractant [BLC (CXCL13)]	increased	at least five times more	significantly greater length	at least a three times greater length	increased more significantly	increased	increased more significantly	increased
B1	increased	at least five times more	significantly greater length	at least a three times greater length	increased more significantly	increased	increased more significantly	increased
